Values of other authors as cited in patent US8563018B2, “Foamable pesticide compositions” (priority 2009, dated 2013).

How the values were obtained:
termites = settings: in vivo
ants = settings: in vivo

**Q.** With `N#Cc1nn(-c2c(Cl)cc(C(F)(F)F)cc2Cl)c(N)c1[S+]([O-])C(F)(F)F` (racemic) [Fipronil, (±)-5-amino-1-(2,6-dichloro-α,α,α-trifluoro-p-tolyl)-4-trifluoromethylsulfinylpyrazole-3-carbonitrile] as the compound, how does the “dose toxic to termites” value (termites) read?
**A.** The value was 2 nanograms per termite.

**Q.** What about the “dose toxic to ants” value (ants) of the same compound?
**A.** The value was “about 1 nanogram per ant”.
